Experimental data taken from patent publication US20140349989A1, “COMPOUNDS AND THERAPEUTIC USES THEREOF” (Alzheimer's Institute of America, priority 2011, published 2014).
pIC50: −log10 of the molar value. Like-named read-outs stand apart in the source and are kept apart here.

Tests used:
Human NAMPT = target: T1, Human NAMPT (Homo sapiens, UniProt P43490); assay: Nampt Activity Assay (coupled enzyme fluorometric, resazurin/diaphorase); assay type: biochemical; conditions: His-tagged human NAMPT, 3 μM NAM, 8 μM PRPP, room temperature up to 3 hours; read-out: in vitro IC50 (Nampt catalytic activity)
T1 construct: 6xHis (N); made in house; host or cells: E. coli BL21-AI
T1 sequence (P43490 whole entry): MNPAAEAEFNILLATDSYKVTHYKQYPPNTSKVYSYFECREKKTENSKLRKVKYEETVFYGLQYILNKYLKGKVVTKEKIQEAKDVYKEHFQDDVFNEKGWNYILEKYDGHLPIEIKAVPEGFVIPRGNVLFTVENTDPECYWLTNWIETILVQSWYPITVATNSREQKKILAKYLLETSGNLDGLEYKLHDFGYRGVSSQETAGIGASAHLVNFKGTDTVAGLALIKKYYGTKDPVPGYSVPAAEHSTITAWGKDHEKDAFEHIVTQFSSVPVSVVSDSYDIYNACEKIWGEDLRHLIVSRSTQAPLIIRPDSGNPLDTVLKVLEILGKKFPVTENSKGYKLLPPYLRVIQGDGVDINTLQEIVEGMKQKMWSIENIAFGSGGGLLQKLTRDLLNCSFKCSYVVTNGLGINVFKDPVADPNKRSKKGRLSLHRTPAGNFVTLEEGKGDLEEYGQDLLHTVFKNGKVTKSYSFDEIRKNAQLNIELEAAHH
Excerpt: 5-phosphoribosyl-1-pyrophosphate (PRPP), ATP, NaM, NaMN, Triton X-100, UDP-glucose and diaphorase were purchased from Sigma-Aldrich, St. Louis, Mo. Human NAMPT, NMN adenylyltransferase (NMNAT1) and UDP-glucose dehydrogenase (UGDH) encoding DNAs were each inserted into a house-modified E. Coli expression vector such that the expressed proteins carried an N-terminal 6×His tag. The His-tagged proteins were expressed in the BL21-AI E. Coli expression strain (Invitrogen Corporation, Carlsbad, Calif.) following induction by 0.2% L-arabinose and 0.5 mM IPTG at 30° C. Proteins were purified on Ni-NTA resin (Qiagen, Germantown, Md.).
The assay for Nampt catalytic activity was constructed based on a previously published coupled enzyme fluorometric technique, which employs NADH as ultimate analyte (Revollo, J. R. et al. Biol. Chem. 279, 50754-50763 (2004)). A substantial improvement in assay sensitivity was achieved by switching from direct detection to a resazurin/diaphorase-based fluorometric detection system for NADH (Guilbault, G. G., and Kramer, D. N. Anal. Chem. 37, 1219-1221 (1965)). The standard inhibition analyses were performed in a real-time mode in 96-well microtiter plates using 50 mM Tris-HCl, pH 7.5, 1% DMSO (v/v), 0.01% Triton X-100 (v/v), 10 mM MgCl2, 2 mM ATP, 3 μM NAM, 8 μM PRPP, […], as well as the following detection reagents: 5 nM Nmnat, 200 nM Ugdh, 200 μM UDP-glucose, 0.02 U/mL diaphorase and 0.25 μM resazurin. Incubation of samples at room temperature for up to 3 hours was followed by quantification of fluorescence intensities at excitation and emission wavelengths of 510 nm and 590 nm, respectively, using Gemini XS plate reader (Molecular Devices, Sunnyvale, Calif.). The counter-assay intended to disqualify false positives, such as inhibitors of detection enzymes or fluorescence quenchers, was carried out essentially as described above with an exception that 1 μM NaMN was substituted for Nampt.

[1] = Cytotoxicity Assay (HCT116, CellTiter-Glo); assay type: cell-based; conditions: human
Summary of the method: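 Cells settled overnight, then exposed to compound in DMSO for 72 h, optionally with nicotinic acid (10 μM final) added alongside. Viability read as CellTiter-Glo luminescence.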

[2] = HCT116 cells, 72 hours drug incubation, CellTiter-Glo luminescence, read-out: HCT116 cell cytotoxicity IC50

Row | pIC50 (Human NAMPT) | Compound | IC50 at 72 h ([1]; HCT116 cell cytotoxicity IC50) [nM] | IC50 at 72 h [1, 2] [nM]
1 | ~8.00 | O=C(NCc1cccnc1)Nc1ccc(-n2ccc(C(=O)NCCN3CCCC3)n2)cc1 [Compound 1, 1-(4-{[(Pyridin-3-ylmethyl)carbamoyl]amino}phenyl)-N-[2-(pyrrolidin-1-yl)ethyl]-1H-pyrazole-3-carboxamide] | – | –
2 | ~9.00 | O=C(NCc1cccnc1)Nc1ccc(-n2cc(C(=O)NCCCN3CCCC3)c3ccccc32)cc1 [Compound 4] | ~8 | –
3 | ~8.70 | O=C(NCc1cccnc1)Nc1ccc(-n2nc(C(=O)NCCN3CCCC3)c3ccccc32)cc1 [Compound 6, 1-(4-{[(Pyridin-3-ylmethyl)carbamoyl]amino}phenyl)-N-[2-(pyrrolidin-1-yl)ethyl]-1H-indazole-3-carboxamide] | ~18 | –
4 | ~9.00 | O=C(NCc1cccnc1)Nc1ccc(-n2cc(C(=O)N3CC(N4CCNCC4)C3)c3ccccc32)cc1 [Compound 15, 1-[4-(3-{[3-(Piperazin-1-yl)azetidin-1-yl]carbonyl}-1H-indol-1-yl)phenyl]-3-(pyridin-3-ylmethyl)urea] | ~60 | –
5 | ~9.00 | O=C(NCc1cccnc1)Nc1ccc(-n2cc(C(=O)N3CCC(N4CCOCC4)CC3)c3cccnc32)cc1 [Compound 27, 1-[4-[3-(4-morpholinopiperidine-1-carbonyl)pyrrolo[2,3-b]pyridin-1-yl]phenyl]-3-(3-pyridylmethyl)urea] | ~4 | –
6 | ~9.00 | O=C(NCc1cccnc1)Nc1ccc(-n2cc(C3CCNCC3)c3ccccc32)cc1 [Compound 29, 1-[4-[3-(4-piperidyl)indol-1-yl]phenyl]-3-(3-pyridylmethyl)urea] | – | –
7 | > 9.00 | O=C(NCc1cccnc1)Nc1ccc(-c2nn(C3CN(C4CCCC4)C3)c3ccccc23)cc1 [Compound 33, 1-{4-[1-(1-Cyclopentyl-azetidin-3-yl)-1H-indazol-3-yl]phenyl}-3-(pyridin-3-ylmethyl)urea] | ~1 | < 100
8 | > 9.00 | CC(C)N1CCC2(CC1)CN(c1ccc(NC(=O)NCc3cccnc3)cc1)c1ccccc12 [Compound 61, 1-{4-[1′-(Propan-2-yl)spiro[indole-3,4′-piperidin]-1(2H)-yl]phenyl}-3-(pyridin-3-ylmethyl)urea] | – | –
9 | ~9.00 | O=C(NCc1cccnc1)Nc1ccc(-n2cc(CCN3CCCC3)c3ccccc32)cc1 [Compound 78, 1-(Pyridin-3-ylmethyl)-3-(4-{3-[2-(pyrrolidin-1-yl)ethyl]-1H-indol-1-yl}phenyl)urea] | ~1 | < 100
10 | ~9.00 | O=C(NCc1cccnc1)Nc1ccc(-n2nc(N3CCN(C4CCCC4)CC3)c3ccccc32)cc1 [Compound 109, 1-{4-[3-(4-Cyclopentyl-piperazin-1-yl)-1H-indazol-1-yl]phenyl}-3-(pyridin-3-ylmethyl)urea] | ~1 | < 100
11 | ~8.70 | Cc1c(-c2ccccc2)c(C(=O)O)nn1-c1ccc(NC(=O)NCc2cccnc2)cc1 [Compound 119, 5-Methyl-4-phenyl-1-(4-{[(pyridin-3-ylmethyl)carbamoyl]amino}phenyl)-1H-pyrazole-3-carboxylic acid] | – | –
12 | – | CN(C)C1CN(C(=O)c2nn(-c3ccc(/C=C/C(=O)NCc4cccnc4)cc3)c3ccccc23)C1 [Compound 165, (2E)-3-[4-(3-{[3-(Dimethylamino)azetidin-1-yl]carbonyl}-1H-indazol-1-yl)phenyl]-N-(pyridin-3-ylmethyl)prop-2-enamide] | – | < 100
13 | – | CN(C)C1CCN(C(=O)c2nn(-c3ccc(/C=C/C(=O)NCc4cccnc4)cc3)c3ccccc23)C1 (centres unmarked) [Compound 166, (2E)-3-[4-(3-{[3-(Dimethylamino)pyrrolidin-1-yl]carbonyl}-1H-indazol-1-yl)phenyl]-N-(pyridin-3-ylmethyl)prop-2-enamide] | – | < 100
14 | – | O=C(/C=C/c1ccc(-n2nc(C(=O)N3CCN(C4CCC4)CC3)c3ccccc32)cc1)NCc1cccnc1 [Compound 167, (2E)-3-(4-{3-[(4-Cyclobutylpiperazin-1-yl)carbonyl]-1H-indazol-1-yl}phenyl)-N-(pyridin-3-ylmethyl)prop-2-enamide] | – | < 100
15 | – | O=C(/C=C/c1ccc(-n2nc(C(=O)N3CCC(N4CCCC4)CC3)c3ccccc32)cc1)NCc1cccnc1 [Compound 168, (2E)-N-(Pyridin-3-ylmethyl)-3-[4-(3-{[4-(pyrrolidin-1-yl)piperidin-1-yl]carbonyl}-1H-indazol-1-yl)phenyl]prop-2-enamide] | – | < 100
16 | ~8.52 | O=C(/C=C/c1ccc(-n2nc(C(=O)N3CC(N4CCOCC4)C3)c3ccccc32)cc1)NCc1cccnc1 [Compound 169, (2E)-3-[4-(3-{[3-(Morpholin-4-yl)azetidin-1-yl]carbonyl}-1H-indazol-1-yl)phenyl]-N-(pyridin-3-ylmethyl)prop-2-enamide] | ~10 | < 100
17 | – | O=C(/C=C/c1ccc(-n2nc(C(=O)N3CCC(N4CCOCC4)C3)c3ccccc32)cc1)NCc1cccnc1 (centres unmarked) [Compound 170, (2E)-3-[4-(3-{[3-(Morpholin-4-yl)pyrrolidin-1-yl]carbonyl}-1H-indazol-1-yl)phenyl]-N-(pyridin-3-ylmethyl)prop-2-enamide] | – | < 100
18 | – | O=C(/C=C/c1ccc(-n2nc(C(=O)N3CCC(N4CCOCC4)CC3)c3ccccc32)cc1)NCc1cccnc1 [Compound 171, (2E)-3-[4-(3-{[4-(Morpholin-4-yl)piperidin-1-yl]carbonyl}-1H-indazol-1-yl)phenyl]-N-(pyridin-3-ylmethyl)prop-2-enamide] | – | < 100
19 | – | O=C(/C=C/c1ccc(-n2nc(C(=O)N3CCN(C4CCCCC4)CC3)c3ccccc32)cc1)NCc1cccnc1 [Compound 173, (2E)-3-(4-{3-[(4-Cyclohexylpiperazin-1-yl)carbonyl]-1H-indazol-1-yl}phenyl)-N-(pyridin-3-ylmethyl)prop-2-enamide] | – | < 100
20 | – | O=C(/C=C/c1ccc(-n2cc(CCN3CCCC3)c3ccccc32)cc1)NCc1cccnc1 [Compound 174, (2E)-N-(Pyridin-3-ylmethyl)-3-(4-{3-[2-(pyrrolidin-1-yl)ethyl]-1H-indol-1-yl}phenyl)prop-2-enamide] | – | < 100
21 | – | O=C(/C=C/c1ccc(-n2nc(C(=O)N3CCC(N4CCCCC4)CC3)c3ccccc32)cc1)NCc1cccnc1 [Compound 177, (2E)-3-{4-[3-(1,4′-Bipiperidin-1′-ylcarbonyl)-1H-indazol-1-yl]phenyl}-N-(pyridin-3-ylmethyl)prop-2-enamide] | < 100 | –
22 | – | O=C(/C=C/c1ccc(-n2cc(CCN3CCOCC3)c3ccccc32)nc1)NCc1cccnc1 [Compound 179, (2E)-3-(6-{3-[2-(Morpholin-4-yl)ethyl]-1H-indol-1-yl}pyridin-3-yl)-N-(pyridin-3-ylmethyl)prop-2-enamide] | – | < 100
23 | – | O=C(CCc1ccc(-n2cc(CCN3CCOCC3)c3ccccc32)cc1)NCc1cccnc1 [Compound 180, 3-(4-{3-[2-(Morpholin-4-yl)ethyl]-1H-indol-1-yl}phenyl)-N-(pyridin-3-ylmethyl)propanamide] | – | < 100
24 | – | O=C(/C=C/c1ccc(-n2cc(CCN3CCCOCC3)c3ccccc32)cc1)NCc1cccnc1 [Compound 181, (2E)-3-(4-{3-[2-(1,4-Oxazepan-4-yl)ethyl]-1H-indol-1-yl}phenyl)-N-(pyridin-3-ylmethyl)prop-2-enamide] | – | < 100
25 | – | O=C(/C=C/c1ccc(-n2cc(CCN3CCCCC3)c3ccccc32)cc1)NCc1cccnc1 [Compound 182, (2E)-3-(4-{3-[2-(Piperidin-1-yl)ethyl]-1H-indol-1-yl}phenyl)-N-(pyridin-3-ylmethyl)prop-2-enamide] | – | < 100
26 | – | O=C(Cc1ccc(-n2nc(C(=O)N3CCC(N4CCCCC4)CC3)c3ccccc32)cc1)NCc1cccnc1 [Compound 183, 2-{4-[3-(1,4′-Bipiperidin-1′-ylcarbonyl)-1H-indazol-1-yl]phenyl}-N-(pyridin-3-ylmethyl)acetamide] | – | < 100

Row | Compound | pIC50 (Human NAMPT) | IC50 at 72 h ([1]; HCT116 cell cytotoxicity IC50) [nM] | IC50 at 72 h [1, 2] [nM]
27 | CC(C(=O)N(C)C)N1CCC2(CC1)CN(c1ccc(NC(=O)NCc3cccnc3)cc1)c1ccccc12 (centres unmarked) [Compound 47, N,N-Dimethyl-2-[1-(4-{[(pyridin-3-ylmethyl)carbamoyl]ami-no}phenyl)-1,2-dihydro-1′H-spiro[indole-3,4′-piperidin]-1′-yl]propanamide] | > 9.00 | < 1 | < 100
